# Results from the Kinase Knowledgebase extract (Sharma et al. 2016).
# Tests used:
# [1] = target: EGFR (Human), P00533 [T790M/L858R]
# [2] = target: EGFR (Human), P00533 [T790M/L858R]; settings: baf3
# [3] = target: EGFR (human), P00533 [L858R]
# EGFR (human) = EGFR (human) (UniProt P00533)
# [4] = target: EGFR (Human), P00533 [Assessment of EGFR-Del T790M Dependent Cell Proliferation in BaF3 Cells]
# EGFR (Human), P00533 [Assessment of EGFR-Del T790M Dependent Cell Proliferation in BaF3 Cells], sequence (P00533 whole entry, looked up, stated change not applied): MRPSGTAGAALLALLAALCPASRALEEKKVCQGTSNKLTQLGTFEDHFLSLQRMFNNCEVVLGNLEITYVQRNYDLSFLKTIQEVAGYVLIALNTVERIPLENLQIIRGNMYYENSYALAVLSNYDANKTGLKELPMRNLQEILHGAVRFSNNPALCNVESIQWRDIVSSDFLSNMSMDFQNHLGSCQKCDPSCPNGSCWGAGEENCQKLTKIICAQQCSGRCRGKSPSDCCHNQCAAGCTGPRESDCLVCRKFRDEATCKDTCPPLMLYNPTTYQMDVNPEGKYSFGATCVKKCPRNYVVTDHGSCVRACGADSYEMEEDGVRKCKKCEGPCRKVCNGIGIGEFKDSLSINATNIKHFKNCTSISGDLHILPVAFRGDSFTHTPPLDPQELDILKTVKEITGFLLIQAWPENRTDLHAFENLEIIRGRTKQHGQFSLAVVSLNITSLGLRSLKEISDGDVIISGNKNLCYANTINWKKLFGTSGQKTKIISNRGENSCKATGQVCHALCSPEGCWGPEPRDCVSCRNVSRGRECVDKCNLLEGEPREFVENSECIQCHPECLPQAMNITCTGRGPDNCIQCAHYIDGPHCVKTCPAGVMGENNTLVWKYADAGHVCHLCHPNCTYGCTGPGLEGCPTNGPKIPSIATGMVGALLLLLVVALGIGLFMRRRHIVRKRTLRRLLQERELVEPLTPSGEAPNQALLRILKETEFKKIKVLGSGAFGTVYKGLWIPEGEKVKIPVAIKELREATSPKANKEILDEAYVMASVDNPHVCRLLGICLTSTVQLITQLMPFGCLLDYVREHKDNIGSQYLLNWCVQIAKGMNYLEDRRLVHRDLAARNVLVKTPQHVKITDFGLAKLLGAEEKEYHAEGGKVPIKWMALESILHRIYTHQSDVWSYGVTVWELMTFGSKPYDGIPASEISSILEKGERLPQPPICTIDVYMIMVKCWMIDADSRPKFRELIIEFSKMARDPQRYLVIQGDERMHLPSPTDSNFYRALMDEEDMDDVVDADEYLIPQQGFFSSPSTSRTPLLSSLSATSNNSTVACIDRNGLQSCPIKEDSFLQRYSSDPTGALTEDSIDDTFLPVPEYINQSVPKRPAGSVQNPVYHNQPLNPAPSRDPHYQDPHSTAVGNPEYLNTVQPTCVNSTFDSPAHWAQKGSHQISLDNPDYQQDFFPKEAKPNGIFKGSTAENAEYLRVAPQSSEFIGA
# EGFR (human), sequence (P00533 whole entry, looked up): as the sequence (P00533 whole entry, looked up, stated change not applied) above
# EGFR (human), P00533 [L858R], sequence (P00533 whole entry L858R, looked up): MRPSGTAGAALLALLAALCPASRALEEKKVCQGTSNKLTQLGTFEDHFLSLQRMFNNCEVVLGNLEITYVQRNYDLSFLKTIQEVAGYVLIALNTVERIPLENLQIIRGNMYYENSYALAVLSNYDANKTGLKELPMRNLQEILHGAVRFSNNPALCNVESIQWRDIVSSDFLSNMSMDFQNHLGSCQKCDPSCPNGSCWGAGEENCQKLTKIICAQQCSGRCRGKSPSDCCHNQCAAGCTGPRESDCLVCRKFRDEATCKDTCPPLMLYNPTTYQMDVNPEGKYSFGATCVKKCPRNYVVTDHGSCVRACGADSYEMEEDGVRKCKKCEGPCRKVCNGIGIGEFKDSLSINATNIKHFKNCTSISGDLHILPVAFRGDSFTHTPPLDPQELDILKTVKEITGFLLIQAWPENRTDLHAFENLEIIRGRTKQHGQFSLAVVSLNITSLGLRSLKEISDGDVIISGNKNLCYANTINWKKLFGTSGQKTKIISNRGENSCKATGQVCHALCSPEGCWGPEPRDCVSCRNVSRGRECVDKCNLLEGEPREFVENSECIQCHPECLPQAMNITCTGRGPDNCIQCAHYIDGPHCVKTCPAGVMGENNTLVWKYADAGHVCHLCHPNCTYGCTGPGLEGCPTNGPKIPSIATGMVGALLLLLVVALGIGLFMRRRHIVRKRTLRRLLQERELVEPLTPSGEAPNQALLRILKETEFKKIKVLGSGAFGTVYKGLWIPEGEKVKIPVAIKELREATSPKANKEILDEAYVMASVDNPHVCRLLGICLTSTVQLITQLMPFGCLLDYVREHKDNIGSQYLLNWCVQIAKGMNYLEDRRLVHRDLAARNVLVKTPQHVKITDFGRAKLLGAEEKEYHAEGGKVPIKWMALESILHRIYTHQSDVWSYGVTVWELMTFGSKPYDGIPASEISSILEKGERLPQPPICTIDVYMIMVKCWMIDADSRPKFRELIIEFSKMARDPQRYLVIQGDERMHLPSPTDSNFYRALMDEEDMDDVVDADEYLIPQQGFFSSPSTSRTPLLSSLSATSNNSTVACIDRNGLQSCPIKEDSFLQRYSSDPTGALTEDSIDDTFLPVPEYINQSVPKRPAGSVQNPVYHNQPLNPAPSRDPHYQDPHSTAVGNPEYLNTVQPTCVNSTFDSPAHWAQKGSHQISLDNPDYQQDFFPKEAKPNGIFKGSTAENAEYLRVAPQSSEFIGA
# EGFR (Human), P00533 [T790M/L858R], sequence (P00533 whole entry T790M/L858R, looked up): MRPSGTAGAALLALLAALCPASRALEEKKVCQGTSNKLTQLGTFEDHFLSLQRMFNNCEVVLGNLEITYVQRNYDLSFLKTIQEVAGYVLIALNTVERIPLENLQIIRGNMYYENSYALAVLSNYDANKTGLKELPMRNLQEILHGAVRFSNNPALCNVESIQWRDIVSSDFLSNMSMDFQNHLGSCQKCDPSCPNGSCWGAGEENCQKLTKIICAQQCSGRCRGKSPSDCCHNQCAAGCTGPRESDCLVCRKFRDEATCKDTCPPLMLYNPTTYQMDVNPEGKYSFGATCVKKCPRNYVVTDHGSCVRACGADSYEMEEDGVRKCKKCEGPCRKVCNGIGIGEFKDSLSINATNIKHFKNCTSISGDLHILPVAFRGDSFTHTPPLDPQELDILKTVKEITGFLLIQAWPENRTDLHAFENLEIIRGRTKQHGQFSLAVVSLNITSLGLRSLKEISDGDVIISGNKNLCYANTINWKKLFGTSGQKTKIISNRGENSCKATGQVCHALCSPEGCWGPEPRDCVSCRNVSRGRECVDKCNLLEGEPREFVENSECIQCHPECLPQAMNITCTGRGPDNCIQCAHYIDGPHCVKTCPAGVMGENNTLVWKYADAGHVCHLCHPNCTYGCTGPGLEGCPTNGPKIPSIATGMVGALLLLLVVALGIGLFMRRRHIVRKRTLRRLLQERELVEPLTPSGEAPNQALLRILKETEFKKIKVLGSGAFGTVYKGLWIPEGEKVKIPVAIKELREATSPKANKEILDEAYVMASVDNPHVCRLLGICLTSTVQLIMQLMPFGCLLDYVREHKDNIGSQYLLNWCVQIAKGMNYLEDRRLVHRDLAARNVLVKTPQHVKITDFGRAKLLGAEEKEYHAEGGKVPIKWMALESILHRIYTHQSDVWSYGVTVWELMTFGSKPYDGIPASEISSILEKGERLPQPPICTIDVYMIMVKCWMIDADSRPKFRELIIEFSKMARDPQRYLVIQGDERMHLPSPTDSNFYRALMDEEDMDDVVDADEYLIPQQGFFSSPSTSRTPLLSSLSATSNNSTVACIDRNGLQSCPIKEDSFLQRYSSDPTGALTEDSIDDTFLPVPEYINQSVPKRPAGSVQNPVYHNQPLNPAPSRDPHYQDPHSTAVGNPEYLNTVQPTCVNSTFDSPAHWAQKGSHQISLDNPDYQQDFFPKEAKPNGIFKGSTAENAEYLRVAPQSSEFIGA
IC50 [1] [nM],IC50 [2] [nM],IC50 [3] [nM],IC50 (EGFR (human)) [nM],IC50 [4] [nM],Compound
< 50,< 50,< 50,< 50,< 50,COc1cc(C)c(NC(=O)CCl)cc1Nc1ncc(C)c(Nc2ccccc2P(C)(C)=O)n1
< 50,< 50,< 50,< 50,< 50,C=CC(=O)Nc1cc(Nc2ncc(Cl)c(Nc3ccccc3P(C)(C)=O)n2)c(OC)cc1OCC1CCCCN1C (stereo not given)
< 50,101 to 250,< 50,101 to 250,< 50,C=CC(=O)Nc1ccc(Nc2ncc(Cl)c(Nc3cccc(OCCN4CCCCC4)c3P(C)(C)=O)n2)c(OC)c1
< 50,< 50,< 50,< 50,< 50,C=C(CN1CCCCC1)C(=O)Nc1ccc(OC)c(Nc2ncc(Cl)c(Nc3ccccc3P(C)(C)=O)n2)c1
< 50,< 50,< 50,< 50,< 50,COc1cc(F)c(NC(=O)C#CC(C)(C)N2CCCC2)cc1Nc1ncc(Cl)c(Nc2ccccc2P(C)(C)=O)n1
< 50,< 50,< 50,< 50,< 50,C=CC(=O)Nc1cc(Nc2ncc(Cl)c(Nc3ccccc3P(C)(C)=O)n2)c(OC)cc1OC(CF)CN(CC)CC (stereo not given)
< 50,< 50,< 50,< 50,< 50,C=C(CN1CCN(CCO)CC1)C(=O)Nc1ccc(OC)c(Nc2ncc(Cl)c(Nc3ccccc3P(C)(C)=O)n2)c1
< 50,< 50,< 50,< 50,< 50,COc1cc(F)c(NC(=O)/C=C/Cl)cc1Nc1ncc(Cl)c(Nc2ccccc2P(C)(C)=O)n1
< 50,< 50,< 50,< 50,< 50,COc1cc(F)c(NC(=O)CCl)cc1Nc1ncc(Cl)c(Nc2ccccc2P(C)(C)=O)n1
< 50,< 50,< 50,101 to 250,< 50,C=C(C)C(=O)Nc1cc(Nc2ncc(Cl)c(Nc3ccccc3P(C)(C)=O)n2)c(OC)cc1N1CC[C@@H](N(C)C)C1
< 50,< 50,< 50,< 50,< 50,C=CC(=O)Nc1cc(Nc2ncc(Cl)c(Nc3ccccc3P(C)(C)=O)n2)c(OC)cc1OC(COC)CN1CCC1 (stereo not given)
< 50,< 50,< 50,50 to 100,< 50,C=CC(=O)Nc1cc(Nc2ncc(Cl)c(Nc3ccccc3P(C)(C)=O)n2)c(OC)cc1C#CC(C)(C)N1CCCC1
< 50,101 to 250,< 50,< 50,50 to 100,C=CC(=O)Nc1cc(Nc2ncc(Cl)c(Nc3ccccc3P(C)(C)=O)n2)c(OC)cc1N1CCC(N2CCN(C)CC2)C1 (stereo not given)
< 50,< 50,< 50,< 50,< 50,C=CC(=O)Nc1cc(Nc2ncc(Cl)c(Nc3ccccc3P(C)(C)=O)n2)c(OC)cc1O[C@@H](COC)CN(C)C
< 50,< 50,< 50,< 50,< 50,C=C(CN1CCC(N2CCOCC2)CC1)C(=O)Nc1ccc(OC)c(Nc2ncc(Cl)c(Nc3ccccc3P(C)(C)=O)n2)c1
< 50,< 50,< 50,< 50,< 50,C=CC(=O)Nc1cc(Nc2ncc(Cl)c(Nc3ccccc3S(=O)(=O)C(C)C)n2)c(OC)cc1C#CCN(C)C
< 50,< 50,< 50,< 50,< 50,C=CC(=O)Nc1cc(Nc2ncc(Cl)c(Nc3ccccc3P(C)(C)=O)n2)c(OC)cc1OC(COCC)CN(C)C (stereo not given)
< 50,< 50,< 50,< 50,< 50,C=CC(=O)Nc1cc(Nc2ncc(Cl)c(Nc3ccccc3P(C)(C)=O)n2)c(OC)cc1N1CCC(N2CCOCC2)C1 (stereo not given)
